Patent US11773071B2, “Benzothiazepine compounds and their use as bile acid modulators” (Albireo AB, priority 2019, dated 2023)

Test system: Caco-2 cells
Test: Bidirectional permeability assay (Caco-2 cells)
Assay type: in vitro ADME
Conditions: absorptive direction (A2B); 10 μM in FaSSIF buffer; 120 minutes
Experimental: Bidirectional Permeability Assay (Caco-2 Cells)
Caco-2 cells (Evotec) were seeded at a density of 70,000 cells/well in Millicell® 24-well cell culture insert plates and maintained in an incubator (37° C., 5% CO2, 95% RH) for 21 days with media change on alternate days.
Stock solutions (10 mM) of the test compounds, atenolol (low permeability marker), propranolol (high permeability marker) and digoxin (substrate for P-gp transport pathway) were prepared in dimethylsulfoxide (DMSO). An intermediate stock solution (1 mM) was prepared by diluting 10 μL of 10 mM master stock solution with 90 μL of neat DMSO. A working stock solution (10 μM) was prepared by diluting 50 μL of 1 mM with 4950 μL of FaSSIF buffer. Post addition of compounds to the FaSSIF, samples were subjected to sonication for 2 hours, and centrifuged at 4000 RPM for 30 minutes at 37° C. The 4 mL of resultant supernatant was directly used in the assay. The final DMSO concentration in the transport experiments was 1%.
On the day of assay, Caco-2 monolayers were washed twice with transport buffer (HBSS, pH 7.4) and pre-incubated for 30 min (37° C., 5% CO2, 95% RH) in an incubator. The electrical resistance of the monolayers was measured with a Millicell®—ERS system. Monolayers with trans-epithelial electrical resistance (TEER) values greater than 350 ohm·cm^2 were selected for the assay.
The assay was conducted in absorptive direction (A2B) and secretory (B2A) directions. Transport experiments were initiated by addition of transport assay buffer (FaSSIF buffer prepared in HBSS) consisting of compounds to the donor compartment (apical chamber A-B; basolateral chamber B-A) in duplicate (n=2) wells. Drug free HBSS buffer (pH 7.4) containing 1% bovine serum albumin (BSA) was introduced to the receiver (A-B-basolateral; B-A-Apical) compartments. The volumes of apical and basolateral compartments were 0.4 and 0.8 mL, respectively. After adding dosing solution, plates were incubated in an incubator for 120 minutes at 37° C. After 120 minutes, donor and receiver samples were collected and matrix matched (1:1, 30 μL study sample+30 μL blank buffer) with the opposite buffer. Dosing samples matrix matched (1:1, 30 μL study sample+30 μL blank buffer) with the opposite buffer. Samples were processed by adding acetonitrile containing internal standard (60 μL study sample+200 μL acetonitrile containing internal standard—Tolbutamide, 500 ng/mL). Samples were vortexed and centrifuged at 4000 rpm for 10 minutes. The obtained supernatant (100 μL) was diluted with 100 μL of water and transferred to fresh 96 well plates. The concentration of compounds in the samples was analyzed by liquid chromatography tandem mass spectrometry (LC-MS/MS) method using discovery grade bio-analytical method, as applicable.
The mean apparent permeability (Papp,×10^−6 cm/sec) of the test compounds, atenolol, propranolol and digoxin were calculated as follows:
[formula] where dq/dt=rate of transport (rate of transport of compound in the receiver compartment), C0=initial concentration in the donor compartment, A=surface area of the effective filter membrane.

Structure (SMILES): CCCCC1(CCCC)CN(c2ccccc2)c2cc(SC)c(OCC(O)C(=O)O)cc2S(=O)(=O)C1 (single isomer, unassigned) [Example 11, 3-((3,3-dibutyl-7-(methylthio)-1,1-dioxido-5-phenyl-2,3,4,5-tetrahydro-1,5-benzothiazepin-8-yl)oxy)-2-hydroxypropanoic acid]
- Permeability (Caco-2) Papp A2B: 1.5 ×10⁻⁶ cm/s
